Experimental data: article PMC6804080, “Benzoxaboroles—Novel Autotaxin Inhibitors” (Molecules, 2019)
Values after ≈ are worked out from the molar mass of the structure shown. Values joined by “and” are separate entries in the source; they are usually repeats but may differ in a detail not shown here. Equal entries are not always repeated.

Legend:
Autotaxin (ATX) = target: T1, Autotaxin (ATX) (Homo sapiens, UniProt Q13822); assay: biochemical choline detection assay for ATX inhibition, LysoPC substrate; conditions: for IC50: mean standard deviation from duplicate experiments; for ATX inhibition, range of activity: in words
T1 construct: we added 10 μL of recombinant ATX (2 ng/mL) in a Tris–HCl buffer
Protocol: All 21 new benzoxaboroles derivatives prepared herein were evaluated for ATX inhibition in vitro using a biochemical choline detection assay, combining elements of assays already described in the literature.
[…] Mother plates with serial dilutions of compounds in pure DMSO were prepared from 10 mM DMSO stock solutions. Storplate-384-deep-well-V plates (Perkin Elmer) were also used for mother plate preparation. Compounds were diluted in a DMSO in a ratio of 1:3. An aliquot of 200 nL of compound solution was transferred from the mother plate to the test plate with a Mosquito nanoliter liquid handling system (TTP labtech). The assay was performed in Spectra-Plate-384 TC, transparent, (Perkin Elmer, Cat#6007658) using a 20 µL assay volume. The total final percentage of DMSO in the test media was 1%. Compounds were tested at 11 consecutive three-fold dilutions starting from 50 µM (final concentrations) in duplicate, covering range of 0.0008–50 μM to determine IC50 values. […] After dispensing of compounds directly to the dry plate, we added 10 μL of recombinant ATX (2 ng/mL) in a Tris–HCl buffer (140 mM NaCl, 1mM MgCl2, 5 mM KCl, 3 mM CaCl2, 1 mg/ml bovin serum albumin (BSA, fatty acid free) and 100 mM Tris–HCl, pH 9). […] The above-described solution with dimethyl sulfoxide but without the test compound was used as a control. LysoPC without ATX was used as a control for the autohydrolysis of LysoPC. After 1.5 h of incubation, 20 μL of stop solution and developer was added {Choline oxidase (1.2 U/mL), Peroxidase (1.2 U/mL), TOOS (2.7 mM), 4-Aminoantipyrine (2.7 mM), and EDTA (50 mM)} to the reaction mixture, and absorbance was measured after 30 min of incubation. The absorbance was measured by using Perkin-Elmer EnVision plate reader (λ = 555 nm). Data were analyzed using GraphPad Prism software. The calculation of IC50 data, curves and quality control (QC) analysis was made by using Excel tools and GraphPadPrism software. Briefly, individual concentration–effect curves were generated by plotting the logarithm of the tested concentration of tested compounds (X) vs. corresponding percentage inhibition values (Y) using a least squares (ordinary) fit. […] QC criteria parameters (Z,’ S:B, ΔmP) were checked for every plate.

[1] = Chrom logD determination by gradient HPLC (CHI); type: physicochemical; conditions: pH 7.4, Luna C18 column; for chromatographic logD: reversed-phase HPLC, Phenomenex Luna C18 column
Protocol: clogP values were calculated for all compounds using the Percepta software. Chrom logD was determined experimentally using a procedure described in the supplementary data. Furthermore, the correlation between calculated clogP values and experimentally determined Chrom log D values were explored for molecules containing boron functional groups such as boronic acids and benzoxaboroles.
Chrom logD values were determined from the following equation: Chrom logD = 0.0857 × CHI − 2 [39]. Chromatographic hydrophobic index (CHI) values were determined from the gradient retention times (RT). These values approximately corresponded to the volume percentage of organic component in the mobile phase when the compound elutes. CHI values were determined at pH 7.4. Chromatograms were obtained using on Agilent 1100 Series liquid chromatography system with an HPLC diode-array detector (DAD) coupled with a Micromass Quattro micro atmosphere pressure ionization (API) mass spectrometer. The column used for analyses was Phenomenex Luna C18 (50 × 3 mm, 5 µm, 100 Å). The column was maintained at 25 °C. The flow rate was 1.0 mL/min. The mobile phase was composed of 50 mM ammonium acetate in water at pH 7.4 (solvent A) and acetonitrile (solvent B). The solvent gradient condition was initially 0.5% B, and then it increased linearly to 100% B over 3.0 min, remaining at 100% B for 0.5 min, then decreasing linearly to 0% B over 0.2 min followed by an equilibration period of 1.3 min prior to the next injection. The total experimental duration was 5 min. Injection volume was 2.0 µl. Samples temperature was maintained at 15 °C in the autosampler chamber. A group of ten standard compounds having different CHI values was used for calibration of RP-HPLC [40].

[2] = kinetic solubility, turbidimetric method; type: physicochemical; conditions: for solubility kinetic at 1 h: 37 °C, pH 7.4, aqueous buffer, kinetic from dmso stock, Solubility (kinetic solubility range)
Protocol: Turbidimetric solubility allows for a rapid determination of kinetic solubility by using small amounts of the test compound. Assay controls were α-naphtoflavone (low solubility) and sulfaphenazole (expected solubility >100µM). DMSO stock solutions (10 mM) of each compound were first serially diluted 1 in 3 in DMSO and then spiked into an aqueous buffer (100 mM PBS), resulting in 5 following final concentration: 100, 30, 10, 3 and 1 µM (each concentration was tested in duplicate). […] Compound samples were compared to a solvent control in an aqueous buffer (DMSO 1% final concentration), and a significant increase of sample absorbance was considered to have occurred when the absorbance reached a 3-fold standard deviation of the average DMSO absorbance. The calculation of solubility range data was made by Excel tool software. Results are expressed as an estimated solubility range.

[3] = in vitro plasma stability, rat plasma; type: in vitro ADME; conditions: after 4 h
Protocol: (§1) The in vitro plasma stability of the test compounds was studied in human and rat plasma with propranolol, benflorex, and eucatropine as control substances. All compounds at final concentrations of 5 μM (0.5% DMSO) were incubated in a phosphate buffer (50 mM, pH 7.4) for 4 h at 37 °C together with plasma. Aliquots were taken at different time points (0, 30, 120 min and 4 h), followed by reaction termination by the addition of CH3CN:CH3OH 2:1 v/v., which contained diclofenac and warfarin as internal standards (IS). Samples were then centrifuged (at 1600 rpm at 4 °C for 30 min), and the resulting supernatants were subjected to LC/MS/MS analysis. Results are expressed as % remaining.

[4] = in vitro plasma stability, human plasma; type: in vitro ADME; conditions: after 4 h
Protocol: as §1

[5] = metabolic stability in rat liver microsomes; type: in vitro ADME
Protocol: (§2) Metabolic stability was assessed in rat and human liver microsomes, with testosterone and propranolol as positive controls. All compounds, at a final concentration of 1 μM (0.03% DMSO), were incubated in a phosphate buffer (50 mM, pH 7.4) for 60 min at 37 °C, together with liver microsomes in the absence and presence of NADPH generating system (nicotinamide adenine dinucleotide phosphate (NADP, 2 mM), glucose-6-phosphate (20 mM), glucose-6-phosphate dehydrogenase (6U) and magnesium chloride (2 mM)). Aliquots were taken at different time points (0, 10, 20, 30, 45 and 60 min), followed by reaction termination by addition of CH3CN:CH3OH 2:1 v/v, containing diclofenac as internal standard (IS). Samples were then centrifuged (at 2000 rpm at 4 °C for 30 min), and resulting supernatants were subjected to LC/MS/MS analysis. The in vitro half-life was calculated in GraphPadPrism software from % remaining vs. time regression using non-linear regression fit. In vitro intrinsic clearance, expressed as mL/min/g liver, was determined from in vitro half-life and normalized for the protein concentration in the incubation mixture, assuming a 52.5 mg/g liver.

[6] = metabolic stability in human liver microsomes; type: in vitro ADME
Protocol: as §2

[7] = plasma protein binding, equilibrium dialysis, rat plasma; type: in vitro ADME; conditions: pH 7.4, rat plasma, read-out: PPB: fraction bound, rat (converted)
Protocol: (§3) Plasma protein binding was measured using the equilibrium dialysis technique. Positive controls included in this assay were: Acebutolol (low binding) and nicardipine (very high binding). The assay was performed in a 96-well Teflon dialysis unit, where each well consisted of two chambers separated by a dialysis membrane. Plasma (human and rat, commercially obtained from Seralab) spiked with each compound (final concentration: 5 µM, 0.5% DMSO) were added to one chamber, and a blank buffer solution (60 mM Na2HPO4/14 mM KH2PO4/70 mM NaCl; pH 7.4) was added to the other side of the well. Each compound was analyzed in duplicate, for 4 h at 37 °C. After 4 h, both the plasma (free and bound fraction) and buffer (only free fraction) side of the well were sampled, matrix matched, then precipitated with a STOP solution (CH3CN:CH3OH 2:1 v/v, containing diclofenac as internal standard), and centrifuged at 2000 rpm for 30 min (+4 °C). The resulting supernatants were analyzed by LC-MS/MS. The fraction bound was calculated as the concentration difference (analyte vs. internal standard peak area ratio) in the plasma and buffer sides divided by the total concentration in the plasma side. Sampling was also performed from spiked plasma at t = 0 min in order to determine recovery, i.e., % of compound detected at t = 4 h in both the plasma and buffer chambers divided by the compound detected at t = 0 min.

[8] = plasma protein binding, equilibrium dialysis, human plasma; type: in vitro ADME; conditions: for fraction unbound at 4 h, 5 µM: pH 7.4, read-out: PPB: fraction bound, human (converted)
Protocol: as §3

[9] = choline release assay using as a substrate

IC50 (Autotaxin (ATX); [9]) | ATX inhibition, range of activity (Autotaxin (ATX)) | chromatographic logD [1] | solubility kinetic at 1 h [2] | PS (plasma stability), rat [3] | PS (plasma stability), human [4] | LMS: predicted in vivo hepatic clearance, rat [5] | LMS: predicted in vivo hepatic clearance, human [6] | fraction unbound at 4 h, 5 µM [7] | fraction unbound at 4 h, 5 µM [8] | IC50 (Autotaxin (ATX); choline release assay using LPC C16:0 as a substrate) | Chrom logD [1] | Solubility (kinetic solubility range) ([2]; turbidimetric, PBS pH 7.4, after 1h) | PPB: fraction bound, human [8] | SMILES
180 ± 40 nM | nanomolar range | 4.52 | > 100 µM | 64.5 %remaining | 66.5 %remaining | 86 %LBF | 82 %LBF | 0.012 | 0.016 |  |  |  |  | O=C(OCc1cc(Cl)cc(Cl)c1)N1CCN(C2CCN(C(=O)c3ccc4c(c3)B(O)OC4)C2)CC1 (stereo not drawn) [Compound 30, (3,5-dichlorophenyl)methyl 4-[1-(1-hydroxy-3H-2,1-benzoxaborole-6-carbonyl)pyrrolidin-3-yl]piperazine-1-carboxylate]
7500 ± 5600 nM |  | 4.63 | > 100 µM | 67.9 %remaining | 71.6 %remaining | 86 %LBF | 85 %LBF |  | 0.022 |  |  |  |  | O=C(OCc1cc(Cl)cc(Cl)c1)N1CCN(C2CCN(C(=O)c3cccc4c3B(O)OC4)C2)CC1 (stereo not drawn) [Compound 31, (3,5-dichlorophenyl)methyl 4-[1-(1-hydroxy-3H-2,1-benzoxaborole-7-carbonyl)pyrrolidin-3-yl]piperazine-1-carboxylate]
 | nanomolar range |  |  | 61.6 %remaining | 70.6 %remaining | 77 %LBF | 89 %LBF |  |  | 920 ± 820 nM | 5.49 | >100 µM | NA ^e/99.2% | O=C(OCc1cc(Cl)cc(Cl)c1)N1CCN(C2CCN(C(=O)c3ccc4c(c3)B(O)OC4)CC2)CC1 [Compound 34]
1800 ± 1750 nM |  | 4.58 | > 100 µM | 63.0 %remaining | 59.2 %remaining | 86 %LBF | 89 %LBF |  | 0.017 |  |  |  |  | O=C(OCc1cc(Cl)cc(Cl)c1)N1CCN(C2CCN(C(=O)c3ccc4c(c3)COB4O)CC2)CC1 [Compound 35, (3,5-dichlorophenyl)methyl 4-[1-(1-hydroxy-3H-2,1-benzoxaborole-5-carbonyl)-4-piperidyl]piperazine-1-carboxylate]
130 ± 120 nM | nanomolar range | 4.58 | 30 to 100 µM (≈ 15.1 to 50.4 µg/mL) | 71.2 %remaining and 72.2 %remaining | 79.1 %remaining | 62 %LBF | 85 %LBF | 0.016 | 0.021 |  |  |  |  | O=C(OCc1cc(Cl)cc(Cl)c1)N1CCN(C2CN(C(=O)c3ccc4c(c3)B(O)OC4)C2)CC1 [Compound 37, (3,5-dichlorophenyl)methyl 4-[1-(1-hydroxy-3H-2,1-benzoxaborole-6-carbonyl)azetidin-3-yl]piperazine-1-carboxylate]
